Drawing on publication PMC4459817, “Vasculotide reduces endothelial permeability and tumor cell extravasation in the absence of binding to or agonistic activation of Tie2” (EMBO Molecular Medicine, 2015), this text covers lung metastases response and Kd for two molecules.

As a reminder, the Kd is a measure of binding affinity in units of concentration. A low value points to tighter binding.

Assay [1] concerns SN12luc lung metastases in YFP-SCID mice. As to the kind of experiment: experimental SN12luc lung metastasis model (IV). It counts as in vivo, human SN12luc cells in YFP-SCID mice. The conditions noted are these: VT 250 ng/2 days or 400 ng/2 days; Fig3E–G; 50DPI imaging. An excerpt: Figure 3 Vasculotide has no effect on experimental liver metastases from a colon cancer cell line (HT29^luc), nor on experimental lung metastases from a renal cancer cell line (SN12^luc) • A–D An experiment where HT29^luc tumor cells were implanted intravenously into YFP-SCID mice. (A) Kaplan–Meier survival analysis. (B) Quantification of total metastatic burden in the liver and lymphatics, at 35 days post-implantation (DPI), from whole-body bioluminescent imaging (C). (D) Photograph of typical liver metastases. • E–G An experiment where SN12^luc tumor cells were implanted intravenously into YFP-SCID mice. (E) Kaplan–Meier survival analysis. (F) Quantification of total metastatic burden at 50DPI, mostly within the lungs, from whole-body bioluminescent imaging (G). […]
For in vivo BI: Mice were injected intraperitoneally with 150mg/kg luciferin (Promega) 10 minutes prior to and anesthetized with isofluorane just before luminescent pseudocolor imaging (uniform settings: CCD camera locked at -105 °C, exposure=60s, f/1, subject size=1.5cm, bin=8, FOV=23.2cm, full image correction) using the IVIS 200 Imaging System (Caliper/PerkinElmer). Using the Living Image software (v2.50.1, Xenogen), weekly images were analyzed under uniform color range on grayscale photographic overlay. […]

Assay [2] concerns the target T1, human Tie2-Fc (Fc-conjugated extracellular domain of Tie2) (human, UniProt Q02763 23-748).
T1 chain: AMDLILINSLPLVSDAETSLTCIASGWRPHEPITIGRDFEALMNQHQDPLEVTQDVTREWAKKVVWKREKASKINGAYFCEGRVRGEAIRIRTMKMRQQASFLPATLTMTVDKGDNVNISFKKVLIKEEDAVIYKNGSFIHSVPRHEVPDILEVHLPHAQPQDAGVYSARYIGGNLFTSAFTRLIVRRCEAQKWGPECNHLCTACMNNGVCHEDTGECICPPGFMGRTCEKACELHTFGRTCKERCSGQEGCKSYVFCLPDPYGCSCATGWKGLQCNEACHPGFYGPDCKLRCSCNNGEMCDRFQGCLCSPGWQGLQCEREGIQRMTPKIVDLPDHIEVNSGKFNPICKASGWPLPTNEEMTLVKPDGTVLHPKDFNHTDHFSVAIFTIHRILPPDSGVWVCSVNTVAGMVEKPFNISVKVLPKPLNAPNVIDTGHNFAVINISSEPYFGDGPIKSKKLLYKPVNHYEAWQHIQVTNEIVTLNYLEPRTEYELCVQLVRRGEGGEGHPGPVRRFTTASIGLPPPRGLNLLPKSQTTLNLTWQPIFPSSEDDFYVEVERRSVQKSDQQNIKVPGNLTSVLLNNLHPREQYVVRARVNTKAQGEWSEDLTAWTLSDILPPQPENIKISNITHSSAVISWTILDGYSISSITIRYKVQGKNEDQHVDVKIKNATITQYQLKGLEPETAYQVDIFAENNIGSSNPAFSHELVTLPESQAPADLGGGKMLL
As to the kind of experiment: SPR. In general terms: Surface plasmon resonance follows binding to a sensor surface in real time, without labels.

For “CHHHRHSF [Vasculotide, 4-armed maleimide-functionalized polyethylene glycol (PEG) backbone to link together four cysteine-capped T7 peptides, that is, CHHHRHSF]”, in assay [1], the lung metastases response entry is reported as “did not respond to VT treatment”.

B1: recombinant human Ang1 (rhAng1) (ligand, UniProt Q15389 16-498, looked up)
chain: HIGCSNQRRSPENSGRRYNRIQHGQCAYTFILPEHDGNCRESTTDQYNTNALQRDAPHVEPDFSSQKLQHLEHVMENYTQWLQKLENYIVENMKSEMAQIQQNAVQNHTATMLEIGTSLLSQTAEQTRKLTDVETQVLNQTSRLEIQLLENSLSTYKLEKQLLQQTNEILKIHEKNSLLEHKILEMEGKHKEELDTLKEEKENLQGLVTRQTYIIQELEKQLNRATTNNSVLQKQQLELMDTVHNLVNLCTKEGVLLKGGKREEEKPFRDCADVYQAGFNKSGIYTIYINNMPEPKKVFCNMDVNGGGWTVIQHREDGSLDFQRGWKEYKMGFGNPSGEYWLGNEFIFAITSQRQYMLRIELMDWEGNRAYSQYDRFHIGNEKQNYRLYLKGHTGTAGKQSSLILHGADFSTKDADNDNCMCKCALMLTGGWWFDACGPSNLNGMFYTAGQNHGKLNGIKWHYFKGPSYSLRSTTMMIRPLDF
notes: angiopoietin-1, human, recombinant; also called angiopoietin-1; source: bought: R&D Systems (named for the Boyden chamber experiments)
B1 had a Kd in assay [2] of 0.205 nM.
